Measured values taken from patent US20130150598A1, “USE OF 25-HYDROXY-VITAMIN D3 TO AFFECT HUMAN MUSCLE PHYSIOLOGY” (DSM IP ASSETS B.V., priority 2008, published 2013).

Legend:
[1] = tested on: healthy, postmenopausal women; assay: Clinical trial: muscle strength (knee extensor and flexor strength); assay type: in vivo, human; details: 4 months; for Muscle strength, knee extension (best value), change vs. baseline / Muscle strength, knee extension (mean value), change vs. baseline / Muscle strength, knee flexion (best value), change vs. baseline / Muscle strength, knee flexion (mean value), change vs. baseline: daily 20 μg per day / weekly 140 μg per week, oral
Excerpt: (§1) Each group included five subjects. They are followed for four months in Zurich, Switzerland during the winter.
(§2) Equimolar quantities of both substances were investigated. […] As the maximum pre-existing baseline concentration of 25-OH D3 will be 50 nmol/L, it is not anticipated that subjects will approach the range where disturbance in Ca^2+ homeostasis has been observed.
(§3) Each dosage is consumed orally at breakfast. The duration of the study is four months for the “Daily” and “Weekly” groups. Subjects enrolled in the “Bolus” group consume orally a single dosage at the second study visit.
(§4) Muscle strength and function were assessed by the following standard performance tests: knee flexor and extensor strength, repeated sit-to-stand test and timed up & go (TUG) in Week 1 on visit 2 (baseline) and at study end on visit 15. Muscle strength was measured as knee extensor and flexor in Newtons (kiloponds). TUG is a measure of functional mobility including muscle strength, gait speed, and balance and is assessed in seconds. The repeated sit-to-stand is a functional test and measured in seconds.

[2] = tested on: healthy, postmenopausal women; assay: Clinical trial: muscle function (repeated sit-to-stand, timed up & go); assay type: in vivo, human; details: for Muscle function, repeated sit-to-stand, change vs. baseline / Muscle function, timed-up-and-go, change vs. baseline: daily 20 μg per day / weekly 140 μg per week, oral
Excerpt: as §1, §2, §3, §4

[3] = tested on: gastrocnemius muscle gene expression (mRNA); assay: Gene chip analysis of gastrocnemius muscle in hindlimb unloaded (tail suspension) skeletal muscle atrophy model; assay type: in vivo, BalbC mice; details: for Differentially expressed muscle genes compared to HU: selected skeletal muscle genes
Excerpt: Initially this model was established in rats for simulating spaceflight in humans and is commonly used in other scientific fields to study the loss of skeletal muscle mass or bone. The results are considered indicative of human conditions such as sarcopenia (degenerative loss of skeletal muscle mass and strength during the process of ageing) or immobilization of skeletal muscle (e.g. after prolonged bed rest due to fractures, surgery or trauma). Methods For our study, nine month old BalbC female mice were randomized at the beginning of the study into four groups with 10 animals per group • 1. […] The animals were placed in special cages for duration of seven days; all mice were housed separately and had free access to feed and water ad libidum. […] At the end of the study the gastrocnemius muscle was taken out and directly frozen in liquid nitrogen for further analysis. […] Total RNA was isolated using the commonly used Trizol protocol. The RNA was quantified by using spectrophotometric analysis. The integrity of total RNA samples was also assessed qualitatively on an Agilent 2100 Bioanalyzer. RNA was then prepared for the one cycle cDNA synthesis. A poly-A RNA control is used for this step to provide exogenous positive controls to monitor the entire eukaryotic target labelling process. The first cDNA synthesis is done, and after the second strand cDNA synthesis the cDNA is cleaned up of double-stranded cDNA. A biotin labelled cRNA is then synthesised, cleaned up and quantified using a spectrophotometer at 260/280 nm. It is important that cRNA target is fragmented before hybridization onto a GeneChip probe arrays to obtain optimal assay sensitivity. After fragmentation the probes are hybridized on the chips (Affymetrix Mouse 430-2 chips). The chips are washed and stained in the fluidics station of Affymetrix and scanned in the gene chip scanner. The data is then transferred from the scanner for further analysis using software from Genedata (Expressionist 5.0: […] Analyst). Data interpretation and pathway analysis was done with the online version of the GeneGo Metacore package ([…] evaluates microarray data for quality issues and flags problematic measurements. It provides a set of normalization algorithms and validated condensing methods to automatically pre-process and summarize raw microarray data for subsequent statistical analysis.

C57BL/6J mice = assay: Muscle hypertrophy model (gastrocnemius removal) and endurance exercise capacity test; assay type: in vivo
Excerpt: The objective of this study was to test the effects of 25-OH D3 in a muscle hypertrophy model and in an endurance exercise capacity test in C57BL/6J mice. It is recognized in the art that removal of the gastrocnemius muscle induces compensatory hypertrophy in the soleus and plantaris muscles by multiple mechanisms leading to improved muscle strength and leg power.
Two groups of 10 animals were anesthetized and the left hindlimb of the animals was fixed. All animals received an analgesic. A small incision was made through the skin over the gastrocnemius muscle. The complete gastrocnemius muscle and the tendons were exposed. Both heads of the gastrocnemius muscle were carefully dissected from the underlying intact muscles and care was taken not to rupture nerves and vessels. The skin was closed with a silk suture and the animals were returned into the cages. After recovering from anesthesia the animals could move directly without problems in their cages. Animals were treated for three weeks by gavage with 25-OH D3 at a daily dosage of 50 μg/kg and the control group received vehicle. At the end of the study endurance exercise capacity of all animals was tested on a rodent treadmill.

[4] = at the safe upper level of 250 μg/day; cited from earlier work
[5] = GLM least square means, % improvement adjusted for baseline strength, age, BMI
[6] = GLM least square means, % time needed adjusted for baseline function, age, BMI, 4 months

## C=C1CC[C@H](O)C/C1=C/C=C1\CCC[C@]2(C)[C@@H]([C@H](C)CCCC(C)C)CC[C@@H]12 [Vitamin D3, cholecalciferol]
[1]
  Muscle strength, knee extension (best value), change vs. baseline: −24.8 Newton
  Muscle strength, knee extension (mean value), change vs. baseline: −23.7 Newton
  Muscle strength, knee flexion (best value), change vs. baseline: 2.4 Newton
  Muscle strength, knee flexion (mean value), change vs. baseline: 3.6 Newton
[2]; 4 months
  Muscle function, repeated sit-to-stand, change vs. baseline: 0.30 s
  Muscle function, timed-up-and-go, change vs. baseline: -0.46 s
[3]; 50 μg/kg/bw each, gavage twice, 7 days hindlimb unloading, Affymetrix Mouse 430-2
  Differentially expressed probe sets for genes against HU control group: 385
[3]; Venn overlap, FIG. 2 / FIG. 3
  Number of the group's differentially expressed probe sets also differentially expressed in 25-OH D3+Vitamin D3 group: 177
  Share of the group's differentially expressed probe sets also differentially expressed in 25-OH D3+Vitamin D3 group: ~46%
[3]; gastrocnemius, microarray signal, HU control 749
  Expression pattern Myosin, light chain kinase (Mylk): 786
[3]; gastrocnemius, microarray signal, HU control 1179
  Expression pattern Tropomyosin 1 (Tpm1): 2199
[3]; gastrocnemius, microarray signal, HU control 11353
  Expression pattern Titin (Tnt): 11354
[3]; gastrocnemius, microarray signal, HU control 84697
  Expression pattern Myomesin 1 (Myom 1): 99099
[3]
  Differentially expressed muscle genes compared to HU: Desmin; myoneurin; tropomyosin 1, alpha; tropomyosin

## C=C1CC[C@H](O)C/C1=C/C=C1\CCC[C@]2(C)[C@@H]([C@H](C)CCCC(C)(C)O)CC[C@@H]12 [25-OH D3, 25-hydroxyvitamin D3]
[1]; [5]
  Muscle strength, knee extension (best value), change vs. daily/weekly Vitamin D3: 17.6%
  Muscle strength, knee extension (mean value), change vs. daily/weekly Vitamin D3: 17.0%
  Muscle strength, knee flexion (best value), change vs. daily/weekly Vitamin D3: 4.7%
  Muscle strength, knee flexion (mean value), change vs. daily/weekly Vitamin D3: 3.1%
[1]
  Muscle strength, knee extension (best value), change vs. baseline: 13.6 Newton
  Muscle strength, knee extension (mean value), change vs. baseline: 13.0 Newton
  Muscle strength, knee flexion (best value), change vs. baseline: 7.2 Newton
  Muscle strength, knee flexion (mean value), change vs. baseline: 7.9 Newton
[2]; [6]
  Muscle function, repeated sit-to-stand, change vs. daily/weekly Vitamin D3: 13.9%
  Muscle function, timed-up-and-go, change vs. daily/weekly Vitamin D3: 8.4%
[2]; 4 months
  Muscle function, repeated sit-to-stand, change vs. baseline: 0.63 s
  Muscle function, timed-up-and-go, change vs. baseline: 0.27 s
[2]; unadjusted analysis across four lower extremity tests
  Likelihood of maintaining or improving lower extremity strength and function compared to Vitamin D3: 2.8 fold
[3]; Venn overlap, FIG. 2 / FIG. 3
  Share of the group's differentially expressed probe sets also differentially expressed in 25-OH D3+Vitamin D3 group: ~61%
[3]
  Differentially expressed muscle genes compared to HU: Desmin; dystonin; myocyte enhancer factor 2A;
C57BL/6J mice; 50 μg/kg/day gavage, 3 weeks, control 1.82
  Soleus-Plantaris muscle weight/body weight: 1.94 mg/g
C57BL/6J mice; 50 μg/kg/day gavage, 3 weeks, control 5.25
  Soleus wet weight: 6.37 mg
C57BL/6J mice; 50 μg/kg/day gavage, 3 weeks, control 31.68
  Plantaris wet weight: 33.24 mg
C57BL/6J mice; computer tomography, 50 μg/kg/day, 3 weeks, control 19.90
  Muscle cross-sectional area: 20.98 mm^2
C57BL/6J mice; computer tomography, 50 μg/kg/day, 3 weeks, control 22.78
  Total leg cross-sectional area: 24.04 mm^2
C57BL/6J mice; in words
  Skeletal mass by computer tomography of muscle and total leg area: increases skeletal mass
  Soleus-plantaris muscle weight/body weight ratio compared to control: increased
  Wet weight of the soleus and plantaris muscles compared to control animals: increased
C57BL/6J mice; in words, longer running distance and time
  Endurance exercise capacity compared to control mice: increased endurance exercise capacity
C57BL/6J mice; rodent treadmill, 50 μg/kg/day, 3 weeks, control 37.6
  Running time: 41.0 min
C57BL/6J mice; rodent treadmill, 50 μg/kg/day, 3 weeks, control 986.0
  Running distance: 1078.4 m

## Vitamin D
[4]
  Blood concentration of 25-hydroxyvitamin D after ingestion as dietary supplement: about 200 nmol/L
